We go through 25 molecules from patent publication US10544130B2, “Metallo-beta-lactamase inhibitors” (priority 2015, dated 2020).

Molecules are shown by their SMILES.

In the series the test system is Pseudomonas aeruginosa PAO1 MB9798 (efflux+, IMP-1). The conditions noted are these: ratio MITC95 PA 9798/MITC95 PA 9799; imipenem at 2 μg/mL. The method in brief: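 Isogenic PAO1 pair (efflux+ MB9798, efflux− MB9799, both IMP-1) tested by microbroth MIC with fixed imipenem and/or ceftazidime, usually at CLSI breakpoint, plus fixed class A/C inhibitor against AmpC. MBL inhibitor titrated; concentration restoring susceptibility recorded and fold difference between strains taken as efflux extent.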
With `Nc1nc2c(-c3ccc(S(=O)(=O)NCC4(F)CNC4)c(S(N)(=O)=O)c3-c3nnn[nH]3)cccc2s1.O=CO` [Example 91, 3-(((4-(2-aminobenzo[d]thiazol-4-yl)-2-sulfamoyl-3-(1H-tetrazol-5-yl)phenyl)sulfonamido)methyl)-3-fluoroazetidin-1-ium formate], the Efflux ratio was 1.00.

For the molecule `CNCCCN(C)S(=O)(=O)c1ccc(-c2cccc3sc(N)nc23)c(-c2nnn[nH]2)c1S(N)(=O)=O.O=C(O)C(F)(F)F` [Example 93, 3-(4-(2-aminobenzo[d]thiazol-4-yl)-N-methyl-2-sulfamoyl-3-(1H-tetrazol-5-yl)phenylsulfonamido)-N-methylpropan-1-aminium 2,2,2-trifluoroacetate], the Efflux ratio came out at 1.00.

Regarding `NC[C@@H]1CCN(S(=O)(=O)c2ccc(-c3cccc4sc(N)nc34)c(-c3nnn[nH]3)c2S(N)(=O)=O)C1.O=C(O)C(F)(F)F` [Example 94, (S)-(1-((4-(2-aminobenzo[d]thiazol-4-yl)-2-sulfamoyl-3-(1H-tetrazol-5-yl)phenyl)sulfonyl)pyrrolidin-3-yl)methanaminium 2,2,2-trifluoroacetate], the Efflux ratio is reported as 1.00.

For `Nc1nc2c(-c3ccc(S(=O)(=O)NC4CCC5OC4CC5N)c(S(N)(=O)=O)c3-c3nnn[nH]3)cccc2s1.O=C(O)C(F)(F)F` (stereo not shown) [Example 95, 2-(4-(2-aminobenzo[d]thiazol-4-yl)-2-sulfamoyl-3-(1H-tetrazol-5-yl)phenylsulfonamido)-8-oxabicyclo[3.2.1] octan-6-aminium 2,2,2-trifluoroacetate], the Efflux ratio is 1.00.

Consider `Nc1nc2c(-c3ccc(S(=O)(=O)NCC4COCCN4)c(S(N)(=O)=O)c3-c3nnn[nH]3)cccc2s1.O=C(O)C(F)(F)F` (stereo not shown) [Example 96, 3-((4-(2-aminobenzo[d]thiazol-4-yl)-2-sulfamoyl-3-(1H-tetrazol-5-yl)phenylsulfonamido)methyl)morpholin-4-ium 2,2,2-trifluoroacetate], for which the Efflux ratio came out at 1.00.

Turning to `Nc1nc2c(-c3ccc(S(=O)(=O)NC4CN5CCC4CC5)c(S(N)(=O)=O)c3-c3nnn[nH]3)cccc2s1.O=C(O)C(F)(F)F` (stereo not shown) [Example 97, 3-(4-(2-aminobenzo[d]thiazol-4-yl)-2-sulfamoyl-3-(1H-tetrazol-5-yl)phenylsulfonamido) quinuclidin-1-ium 2,2,2-trifluoroacetate], the Efflux ratio was found to be 1.00.

Take `Nc1nc2c(-c3ccc(S(=O)(=O)N[C@@H](N)c4ccccn4)c(S(N)(=O)=O)c3-c3nnn[nH]3)cccc2s1.O=C(O)C(F)(F)F` [Example 99, (R)-(4-(2-aminobenzo[d]thiazol-4-yl)-2-sulfamoyl-3-(1H-tetrazol-5-yl)phenylsulfonamido) (pyridin-2-yl)methanaminium 2,2,2-trifluoroacetate]: the Efflux ratio was 8.00.

In the case of `CN(CCc1ccncc1)S(=O)(=O)c1ccc(-c2cccc3sc(N)nc23)c(-c2nnn[nH]2)c1S(N)(=O)=O.O=C(O)C(F)(F)F` [Example 100, 4-(2-(4-(2-aminobenzo[d]thiazol-4-yl)-N-methyl-2-sulfamoyl-3-(1H-tetrazol-5-yl)phenylsulfonamido)ethyl)pyridin-1-ium 2,2,2-trifluoroacetate], the Efflux ratio stood at 32.00.

As for `CC1(CN)CN(S(=O)(=O)c2ccc(-c3cccc4sc(N)nc34)c(-c3nnn[nH]3)c2S(N)(=O)=O)C1.O=C(O)C(F)(F)F` [Example 101, (1-((4-(2-aminobenzo[d]thiazol-4-yl)-2-sulfamoyl-3-(1H-tetrazol-5-yl)phenyl)sulfonyl)-3-methylazetidin-3-yl)methanaminium 2,2,2-trifluoroacetate], the Efflux ratio is 1.00.

Regarding `CN1CCC(CNS(=O)(=O)c2ccc(-c3cccc4sc(N)nc34)c(-c3nnn[nH]3)c2S(N)(=O)=O)C1.O=C(O)C(F)(F)F` (stereo not shown) [Example 102, 3-((4-(2-aminobenzo[d]thiazol-4-yl)-2-sulfamoyl-3-(1H-tetrazol-5-yl)phenylsulfonamido)methyl)-1-methylpyrrolidin-1-ium 2,2,2-trifluoroacetate], the Efflux ratio came to 0.50.

On to `Nc1nc2c(-c3ccc(S(=O)(=O)N[C@H]4CO[C@H]5[C@@H]4OC[C@H]5N)c(S(N)(=O)=O)c3-c3nnn[nH]3)cccc2s1.O=C(O)C(F)(F)F` [Example 103, (3R,3aR,6S,6aR)-6-(4-(2-aminobenzo[d]thiazol-4-yl)-2-sulfamoyl-3-(1H-tetrazol-5-yl)phenylsulfonamido) hexahydrofuro[3,2-b] furan-3-aminium 2,2,2-trifluoroacetate], for which the Efflux ratio is 2.00.

On to `NCC1CN(S(=O)(=O)c2ccc(-c3cccc4sc(N)nc34)c(-c3nnn[nH]3)c2S(N)(=O)=O)CCO1.O=C(O)C(F)(F)F` (stereo not shown) [Example 104, (4-((4-(2-aminobenzo[d]thiazol-4-yl)-2-sulfamoyl-3-(1H-tetrazol-5-yl)phenyl)sulfonyl)morpholin-2-yl) methanaminium 2,2,2-trifluoroacetate], for which the Efflux ratio is 2.00.

Regarding `CN(C1CNC1)S(=O)(=O)c1ccc(-c2cccc3sc(N)nc23)c(-c2nnn[nH]2)c1S(N)(=O)=O.O=C(O)C(F)(F)F` [Example 105, 3-(4-(2-aminobenzo[d]thiazol-4-yl)-N-methyl-2-sulfamoyl-3-(1H-tetrazol-5-yl)phenylsulfonamido) azetidin-1-ium 2,2,2-trifluoroacetate], the Efflux ratio was determined as 1.00.

Turning to `Nc1nc2c(-c3ccc(S(=O)(=O)NCc4ccccn4)c(S(N)(=O)=O)c3-c3nnn[nH]3)cccc2s1.O=C(O)C(F)(F)F` [Example 106, 2-((4-(2-aminobenzo[d]thiazol-4-yl)-2-sulfamoyl-3-(1H-tetrazol-5-yl)phenylsulfonamido)methyl)pyridin-1-ium 2,2,2-trifluoroacetate], the Efflux ratio came to 4.00.

Take `CN1CC(N(C)S(=O)(=O)c2ccc(-c3cccc4sc(N)nc34)c(-c3nnn[nH]3)c2S(N)(=O)=O)C1.O=C(O)C(F)(F)F` [Example 107, 3-(4-(2-aminobenzo[d]thiazol-4-yl)-N-methyl-2-sulfamoyl-3-(1H-tetrazol-5-yl)phenylsulfonamido)-1-methylazetidin-1-ium 2,2,2-trifluoroacetate]: the Efflux ratio is on record as 4.00.

As to `CO[C@H]1CNC[C@@H]1NS(=O)(=O)c1ccc(-c2cccc3sc(N)nc23)c(-c2nnn[nH]2)c1S(N)(=O)=O.O=C(O)C(F)(F)F` [Example 108, (3S,4S)-3-(4-(2-aminobenzo[d]thiazol-4-yl)-2-sulfamoyl-3-(1H-tetrazol-5-yl)phenylsulfonamido)-4-methoxypyrrolidin-1-ium 2,2,2-trifluoroacetate], the Efflux ratio came out at 1.00.

On to `CC(N)CNS(=O)(=O)c1ccc(-c2cccc3sc(N)nc23)c(-c2nnn[nH]2)c1S(N)(=O)=O.O=C(O)C(F)(F)F` (stereo not drawn) [Example 109, l-(4-(2-aminobenzo[d]thiazol-4-yl)-2-sulfamoyl-3-(1H-tetrazol-5-yl)phenylsulfonamido) propan-2-aminium 2,2,2-trifluoroacetate], for which the Efflux ratio came out at 0.50.

Consider `NCC1CCCCN1S(=O)(=O)c1ccc(-c2cccc3sc(N)nc23)c(-c2nnn[nH]2)c1S(N)(=O)=O.O=C(O)C(F)(F)F` (stereo not shown) [Example 110, (1-((4-(2-aminobenzo[d]thiazol-4-yl)-2-sulfamoyl-3-(1H-tetrazol-5-yl)phenyl)sulfonyl)piperidin-2-yl)methanaminium 2,2,2-trifluoroacetate], for which the Efflux ratio is recorded as 1.00.

For `Nc1nc2c(-c3ccc(S(=O)(=O)NC4C5CNCC54)c(S(N)(=O)=O)c3-c3nnn[nH]3)cccc2s1.O=C(O)C(F)(F)F` (stereo not shown) [Example 111, 6-(4-(2-aminobenzo[d]thiazol-4-yl)-2-sulfamoyl-3-(1H-tetrazol-5-yl)phenylsulfonamido)-3-azabicyclo[3.1.0]hexan-3-ium 2,2,2-trifluoroacetate], the Efflux ratio came out at 0.50.

On to `Nc1nc2c(-c3ccc(S(=O)(=O)NCC4CNCCO4)c(S(N)(=O)=O)c3-c3nnn[nH]3)cccc2s1.O=C(O)C(F)(F)F` (stereo not shown) [Example 112, 2-((4-(2-aminobenzo[d]thiazol-4-yl)-2-sulfamoyl-3-(1H-tetrazol-5-yl)phenylsulfonamido)methyl)morpholin-4-ium 2,2,2-trifluoroacetate], for which the Efflux ratio was 1.00.

Turning to `Nc1nc2c(-c3ccc(S(=O)(=O)NCC4(N)CCOCC4)c(S(N)(=O)=O)c3-c3nnn[nH]3)cccc2s1.O=CO` [Example 115, 4-((4-(2-aminobenzo[d]thiazol-4-yl)-2-sulfamoyl-3-(1H-tetrazol-5-yl)phenylsulfonamido)methyl)tetrahydro-2H-pyran-4-aminium formate], the Efflux ratio was determined as 1.00.

For `CC(CN)NS(=O)(=O)c1ccc(-c2cccc3sc(N)nc23)c(-c2nnn[nH]2)c1S(N)(=O)=O.O=CO` (stereo not shown) [Example 116, 2-(4-(2-aminobenzo[d]thiazol-4-yl)-2-sulfamoyl-3-(1H-tetrazol-5-yl)phenylsulfonamido) propan-1-aminium formate], the Efflux ratio is 0.50.

`Nc1nc2c(-c3ccc(S(=O)(=O)NC4C[C@@H]5CN[C@H]4C5)c(S(N)(=O)=O)c3-c3nnn[nH]3)cccc2s1.O=CO` (stereo partly drawn) [Example 119, 4-(2-aminobenzo[d]thiazol-4-yl)-N1-((1S,4R)-2-azabicyclo[2.2.1]heptan-6-yl)-3-(1H-tetrazol-5-yl)benzene-1,2-disulfonamide, formate salt]: the Efflux ratio was found to be 0.50.

As for `Nc1nc2c(-c3ccc(S(=O)(=O)NCC4CCNC4)c(S(N)(=O)=O)c3-c3nnn[nH]3)cccc2s1.O=CO` (stereo not shown) [Example 120, 3-((4-(2-aminobenzo[d]thiazol-4-yl)-2-sulfamoyl-3-(1H-tetrazol-5-yl)phenylsulfonamido)methyl)pyrrolidin-1-ium formate], the Efflux ratio stood at 0.50.

`CN(C[C@@H]1CCCN1)S(=O)(=O)c1ccc(-c2cccc3sc(N)nc23)c(-c2nnn[nH]2)c1S(N)(=O)=O.O=CO` [Example 121, (S)-2-((4-(2-aminobenzo[d]thiazol-4-yl)-N-methyl-2-sulfamoyl-3-(1H-tetrazol-5-yl)phenylsulfonamido)methyl)pyrrolidin-1-ium formate]: the Efflux ratio turned out to be 4.00.
